The source made the active and inactive calls. The rule behind the calls is not given here.
How the values were obtained:
B16-F10 [1] = experiment: Induction of cell cycle arrest in mouse B16-F10 cells assessed as accumulation at G1 phase at 200 nM incubated for 24 hrs by flow cytometry (reference value: 57.91 %); type: functional
B16-F10 [2] = experiment: Induction of apoptosis in mouse B16-F10 cells assessed as necrotic cells at 200 nM incubated for 24 hrs by Annexin V-PE/7-AAD staining based flow cytometry (reference value: 0.33 %); type: functional
B16-F10 [3] = experiment: Induction of cell cycle arrest in mouse B16-F10 cells assessed as accumulation at S phase at 50 nM incubated for 24 hrs by flow cytometry (reference value: 37.84 %); type: functional
B16-F10 [4] = experiment: Induction of apoptosis in mouse B16-F10 cells assessed as viable cells at 50 nM incubated for 24 hrs by Annexin V-PE/7-AAD staining based flow cytometry (reference value: 94.5 %); type: functional; details: read-out: Activity
B16-F10 [5] = experiment: Induction of cell cycle arrest in mouse B16-F10 cells assessed as accumulation at G1 phase at 50 nM incubated for 24 hrs by flow cytometry (reference value: 57.91 %); type: functional
B16-F10 [6] = experiment: Induction of apoptosis in mouse B16-F10 cells assessed as necrotic cells at 50 nM incubated for 24 hrs by Annexin V-PE/7-AAD staining based flow cytometry (reference value: 0.33 %); type: functional
B16-F10 [7] = experiment: Antitumor activity against mouse B16-F10 cells implanted in C57BL/6 mouse at 30 mg/kg measured after 10 days relative to control; type: functional; details: B16-F10, 240 h, time 10 day, read-out: TGI
B16-F10 [8] = experiment: Induction of apoptosis in mouse B16-F10 cells assessed as total apoptotic cells at 100 nM incubated for 24 hrs by Annexin V-PE/7-AAD staining based flow cytometry (reference value: 5.17 %); type: functional
B16-F10 [9] = experiment: Induction of cell cycle arrest in mouse B16-F10 cells assessed as accumulation at G2/M phase at 200 nM incubated for 24 hrs by flow cytometry (reference value: 4.25 %); type: functional
B16-F10 [10] = experiment: Induction of cell cycle arrest in mouse B16-F10 cells assessed as accumulation at S phase at 200 nM incubated for 24 hrs by flow cytometry (reference value: 37.84 %); type: functional
B16-F10 [11] = experiment: Induction of apoptosis in mouse B16-F10 cells assessed as late apoptotic cells at 50 nM incubated for 24 hrs by Annexin V-PE/7-AAD staining based flow cytometry (reference value: 4.13 %); type: functional
B16-F10 [12] = experiment: Inhibition of cell migration in mouse B16-F10 cells assessed as recovery of scratch area at 50 nM incubated for 24 hrs by wound healing assay (reference value: 72.97 %); type: functional; parameters: scale not given: the % may be the effect or the level left
B16-F10 [13] = experiment: Induction of apoptosis in mouse B16-F10 cells assessed as viable cells at 200 nM incubated for 24 hrs by Annexin V-PE/7-AAD staining based flow cytometry (reference value: 94.5 %); type: functional; details: read-out: Activity
B16-F10 [14] = experiment: Induction of cell cycle arrest in mouse B16-F10 cells assessed as accumulation at S phase at 100 nM incubated for 24 hrs by flow cytometry (reference value: 37.84 %); type: functional
B16-F10 [15] = experiment: Induction of apoptosis in mouse B16-F10 cells assessed as early apoptotic cells at 100 nM incubated for 24 hrs by Annexin V-PE/7-AAD staining based flow cytometry (reference value: 1.04 %); type: functional
B16-F10 [16] = experiment: Induction of apoptosis in mouse B16-F10 cells assessed as late apoptotic cells at 100 nM incubated for 24 hrs by Annexin V-PE/7-AAD staining based flow cytometry (reference value: 4.13 %); type: functional
B16-F10 [17] = experiment: Inhibition of cell migration in mouse B16-F10 cells assessed as recovery of scratch area at 200 nM incubated for 24 hrs by wound healing assay (reference value: 72.97 %); type: functional; parameters: scale not given: the % may be the effect or the level left
MCF7 = experiment: Antiproliferative activity against human MCF7 cells incubated for 48 hrs by MTT assay; type: functional, cell-based; details: MCF7, 48 h
B16-F10 [18] = experiment: Induction of apoptosis in mouse B16-F10 cells assessed as total apoptotic cells at 200 nM incubated for 24 hrs by Annexin V-PE/7-AAD staining based flow cytometry (reference value: 5.17 %); type: functional
B16-F10 [19] = experiment: Induction of apoptosis in mouse B16-F10 cells assessed as early apoptotic cells at 200 nM incubated for 24 hrs by Annexin V-PE/7-AAD staining based flow cytometry (reference value: 1.04 %); type: functional
Tubulin (Homo sapiens) [20] = target: T1, Tubulin (Homo sapiens) (UniProt P68371+Q9H4B7+P0DPH7+P68366+Q13509+Q71U36+P04350+Q3ZCM7+P07437+P68363+Q9BQE3+Q6PEY2+Q13885+Q9BVA1+Q9BUF5); experiment: Disruption of microtubule polymerization in human HepG2 cells at 100 nM incubated for 12 hrs by immunofluorescence based analysis; type: cell-based
HepG2 = experiment: Antiproliferative activity against human HepG2 cells incubated for 48 hrs by MTT assay; type: functional, cell-based; details: HepG2, 48 h
[21] = Toxicity in C57BL/6 mouse implanted with mouse B16-F10 cells assessed as body weight change at 15 to 30 mg/kg measured after 10 days; type: organism-based; details: in vivo, 240 h, dose 15-30 mg/kg, time 10 day
B16-F10 [22] = experiment: Induction of cell cycle arrest in mouse B16-F10 cells assessed as accumulation at G1 phase at 100 nM incubated for 24 hrs by flow cytometry (reference value: 57.91 %); type: functional
Tubulin (Homo sapiens) [23] = target: T1, Tubulin (Homo sapiens); experiment: (§1) Inhibition of tubulin polymerization (unknown origin) measured upto 20 mins by absorbance based assay; type: protein-complex assay
Tubulin = experiment: as §1; type: protein-complex assay, Homo sapiens
B16-F10 [24] = experiment: Antiproliferative activity against mouse B16-F10 cells incubated for 48 hrs by MTT assay; type: functional, cell-based; details: B16-F10, 48 h
B16-F10 [25] = experiment: Induction of cell cycle arrest in mouse B16-F10 cells assessed as accumulation at G2/M phase incubated for 24 hrs by flow cytometry; type: functional, cell-based
B16-F10 [26] = experiment: Inhibition of cell migration in mouse B16-F10 cells assessed as recovery of scratch area at 100 nM incubated for 24 hrs by wound healing assay (reference value: 72.97 %); type: functional; parameters: scale not given: the % may be the effect or the level left
B16-F10 [27] = experiment: Induction of cell cycle arrest in mouse B16-F10 cells assessed as accumulation at G2/M phase at 50 nM incubated for 24 hrs by flow cytometry (reference value: 4.25 %); type: functional
B16-F10 [28] = experiment: Induction of apoptosis in mouse B16-F10 cells assessed as late apoptotic cells at 200 nM incubated for 24 hrs by Annexin V-PE/7-AAD staining based flow cytometry (reference value: 4.13 %); type: functional
B16-F10 [29] = experiment: Induction of apoptosis in mouse B16-F10 cells assessed as viable cells at 100 nM incubated for 24 hrs by Annexin V-PE/7-AAD staining based flow cytometry (reference value: 94.5 %); type: functional; details: read-out: Activity
B16-F10 [30] = experiment: Antitumor activity against mouse B16-F10 cells implanted in C57BL/6 mouse assessed as reduction in tumor volume at 15 mg/kg measured after 10 days; type: functional, organism-based; details: time 10.0 day
B16-F10 [31] = experiment: Induction of apoptosis in mouse B16-F10 cells assessed as necrotic cells at 100 nM incubated for 24 hrs by Annexin V-PE/7-AAD staining based flow cytometry (reference value: 0.33 %); type: functional
[32] = Toxicity in C57BL/6 mouse implanted with mouse B16-F10 cells assessed as adverse effects at 15 to 30 mg/kg measured after 10 days; type: organism-based; details: in vivo, 240 h, dose 15-30 mg/kg, time 10 day
B16-F10 [33] = experiment: Induction of cell cycle arrest in mouse B16-F10 cells assessed as accumulation at G2/M phase at 100 nM incubated for 24 hrs by flow cytometry (reference value: 4.25 %); type: functional
B16-F10 [34] = experiment: Induction of apoptosis in mouse B16-F10 cells assessed as early apoptotic cells at 50 nM incubated for 24 hrs by Annexin V-PE/7-AAD staining based flow cytometry (reference value: 1.04 %); type: functional
A549 = experiment: Antiproliferative activity against human A549 cells incubated for 48 hrs by MTT assay; type: functional, cell-based; details: A549, 48 h
B16-F10 [35] = experiment: Antitumor activity against mouse B16-F10 cells implanted in C57BL/6 mouse at 15 mg/kg measured after 10 days relative to control; type: functional; details: B16-F10, 240 h, time 10 day, read-out: TGI
B16-F10 [36] = experiment: Induction of apoptosis in mouse B16-F10 cells assessed as total apoptotic cells at 50 nM incubated for 24 hrs by Annexin V-PE/7-AAD staining based flow cytometry (reference value: 5.17 %); type: functional

Question: With COc1cc(Nc2ccnc(-c3cccc4c3ccn4C)n2)cc(OC)c1OC as the molecule, how does the Activity (B16-F10 [1]) read?
Answer: Its Activity is 5.91%.

Question: And the Activity (B16-F10 [2])?
Answer: The Activity was 0.36%.

Question: And the Activity (B16-F10 [3])?
Answer: Its Activity is 32.53%.

Question: What about the viability at 0.05 µM (B16-F10 [4]) of the same molecule?
Answer: Its viability at 0.05 µM is 88.3%.

Question: What about the Activity (B16-F10 [5]) of the same molecule?
Answer: Its Activity is 51.86%.

Question: What about the Activity (B16-F10 [6]) of the same molecule?
Answer: Its Activity is 1.7%.

Question: What about the inhibition in vivo at 30 mg/kg (B16-F10 [7]) of the same molecule?
Answer: Its inhibition in vivo at 30 mg/kg is 79.6%.

Question: What about the Activity (B16-F10 [8]) of the same molecule?
Answer: The Activity was 13.49%.

Question: What about the Activity (B16-F10 [9]) of the same molecule?
Answer: Its Activity is 82.41%.

Question: What about the Activity (B16-F10 [10]) of the same molecule?
Answer: Its Activity is 11.67%.

Question: What about the Activity (B16-F10 [11]) of the same molecule?
Answer: Its Activity is 8.25%.

Question: And the Activity (B16-F10 [12])?
Answer: The Activity was 69.89%.

Question: What about the viability at 0.2 µM (B16-F10 [13]) of the same molecule?
Answer: Its viability at 0.2 µM is 77.4%.

Question: What about the Activity (B16-F10 [14]) of the same molecule?
Answer: Its Activity is 23.18%.

Question: What about the Activity (B16-F10 [15]) of the same molecule?
Answer: Its Activity is 3.58%.

Question: What about the Activity (B16-F10 [16]) of the same molecule?
Answer: The Activity was 9.91%.

Question: And the Activity (B16-F10 [17])?
Answer: The Activity was 22.38%.

Question: What about the IC50 (MCF7) of the same molecule?
Answer: The IC50 was 259 nM.

Question: What about the Activity (B16-F10 [18]) of the same molecule?
Answer: Its Activity is 22.2%.

Question: And the Activity (B16-F10 [19])?
Answer: Its Activity is 3.4%.

Question: What about the Activity (Tubulin (Homo sapiens) [20]) of the same molecule?
Answer: The Activity was “Active”.

Question: And the IC50 (HepG2)?
Answer: The IC50 was 109 nM.

Question: And the Activity [21]?
Answer: Its Activity is “Non-toxic”.

Question: And the Activity (B16-F10 [22])?
Answer: Its Activity is 11.76%.

Question: And the inhibition (Tubulin (Homo sapiens) [23])?
Answer: Its inhibition is “Dose-dependent-effect”.

Question: And the IC50 (Tubulin)?
Answer: Its IC50 is 22200 nM.

Question: And the IC50 (B16-F10 [24])?
Answer: Its IC50 is 98 nM.

Question: And the Activity (B16-F10 [25])?
Answer: The Activity was “Dose-dependent-effect”.

Question: What about the Activity (B16-F10 [26]) of the same molecule?
Answer: The Activity was 37.37%.

Question: And the Activity (B16-F10 [27])?
Answer: The Activity was 15.61%.

Question: And the Activity (B16-F10 [28])?
Answer: Its Activity is 18.8%.

Question: And the viability at 0.1 µM (B16-F10 [29])?
Answer: The viability at 0.1 µM was 86%.

Question: And the Activity (B16-F10 [30])?
Answer: Its Activity is “Active”.

Question: And the Activity (B16-F10 [31])?
Answer: Its Activity is 0.52%.

Question: What about the Activity [32] of the same molecule?
Answer: Its Activity is “Non-toxic”.

Question: And the Activity (B16-F10 [33])?
Answer: Its Activity is 65.06%.

Question: And the Activity (B16-F10 [34])?
Answer: Its Activity is 1.71%.

Question: What about the IC50 (A549) of the same molecule?
Answer: The IC50 was 135 nM.

Question: What about the inhibition in vivo at 15 mg/kg (B16-F10 [35]) of the same molecule?
Answer: The inhibition in vivo at 15 mg/kg was 57.9%.

Question: What about the Activity (B16-F10 [36]) of the same molecule?
Answer: Its Activity is 9.96%.

Source: ChEMBL document CHEMBL6096652, “Design, synthesis and anti-tumor evaluation of novel pyrimidine and quinazoline analogues” (Eur J Med Chem, 2025)
